BindingDB's records for doi:10.3109/14756366.2013.827675 (Orchid Chemicals & Pharmaceuticals Limited, 2014)

Molecular target: Histone deacetylase 1/11/4/6/8
Experiment: HDAC Activity screening
Protocol: Histone Deacetylase (HDAC) Inhibition Assay using Boc-Lys(Ac)-AMC Substrate: Inhibition of HDAC has been implicated to modulate transcription and to induce apoptosis or differentiation in cancer cells. The fluorometric assay provides a fast and fluorescence based method that eliminates radioactivity, extractions or chromatography, as used in traditional assays. The assay is based on two steps. First, the HDAC fluorometric substrate, which comprises an acetylated lysine side chain, is incubated with a sample containing HDAC activity (Mouse Liver Extract). Deacetylation of the substrate sensitizes the substrate; in the second step, treatment with the Trypsin, stop solution produces a fluorophore that can be easily analyzed using fluorescence plate reader. Assay was done in 96-well black microplate and total volume of the assay was […]. Mouse liver enzyme (10 mg/mL) was diluted 1:6 with HDAC buffer. Enzyme cocktail was made of 10 mL of diluted enzyme and 30 mL of HDAC buffer. Forty m

Point of comparison: COc1ccc2c(c1)c(=O)c(C(=O)Nc1nc3ccccc3s1)cn2CCCCC(=O)NO [Quinolone-based HDAC inhibitor 4p], IC50 28 nM. Against it:
- O=C(CCCCn1cc(C(=O)Nc2ccccc2)c(=O)c2ccccc21)NO [Quinolone-based HDAC inhibitor 4a] — within 1.5-fold, 32 nM
- O=C(CCCCn1cc(C(=O)Nc2ccc(F)cc2)c(=O)c2ccccc21)NO [Quinolone-based HDAC inhibitor 4b] — 9.6-fold higher, 270 nM
- COc1ccc(NC(=O)c2cn(CCCCC(=O)NO)c3ccccc3c2=O)cc1 [Quinolone-based HDAC inhibitor 4c] — within 1.5-fold, 39 nM
- O=C(CCCCn1cc(C(=O)NCc2ccccc2)c(=O)c2ccccc21)NO [Quinolone-based HDAC inhibitor 4d] — 4.3-fold higher, 120 nM
- COc1ccc(CNC(=O)c2cn(CCCCC(=O)NO)c3ccccc3c2=O)cc1 [Quinolone-based HDAC inhibitor 4e] — 15-fold higher, 410 nM
- O=C(CCCCn1cc(C(=O)NCc2cccs2)c(=O)c2ccccc21)NO [Quinolone-based HDAC inhibitor 4f] — 14-fold higher, 390 nM
- O=C(CCCCn1cc(C(=O)Nc2ccncc2)c(=O)c2ccccc21)NO [Quinolone-based HDAC inhibitor 4g] — 3.2-fold higher, 90 nM
- O=C(CCCCn1cc(C(=O)Nc2nccs2)c(=O)c2ccccc21)NO [Quinolone-based HDAC inhibitor 4h] — 1.5-fold higher, 42 nM
- Cc1csc(NC(=O)c2cn(CCCCC(=O)NO)c3ccccc3c2=O)n1 [Quinolone-based HDAC inhibitor 4i] — 280-fold lower, 0.1 nM
- O=C(CCCCn1cc(C(=O)Nc2nc3ccccc3s2)c(=O)c2ccccc21)NO [Quinolone-based HDAC inhibitor 4j] — 19-fold lower, 1.5 nM
- COc1ccc2c(c1)c(=O)c(C(=O)Nc1ccccc1)cn2CCCCC(=O)NO [Quinolone-based HDAC inhibitor 4k] — within 1.5-fold, 32 nM
- COc1ccc2c(c1)c(=O)c(C(=O)Nc1ccc(F)cc1)cn2CCCCC(=O)NO [Quinolone-based HDAC inhibitor 4l] — within 1.5-fold, 32 nM
- COc1ccc(NC(=O)c2cn(CCCCC(=O)NO)c3ccc(OC)cc3c2=O)cc1 [Quinolone-based HDAC inhibitor 4m] — 2.7-fold higher, 75 nM
- COc1ccc2c(c1)c(=O)c(C(=O)Nc1ccc(OC)c(OC)c1)cn2CCCCC(=O)NO [Quinolone-based HDAC inhibitor 4n] — 5.4-fold higher, 150 nM
- COc1ccc2c(c1)c(=O)c(C(=O)Nc1cc(-c3ccccc3)nn1C)cn2CCCCC(=O)NO [Quinolone-based HDAC inhibitor 4o] — 2.8-fold lower, 10 nM
- O=C(CCCCn1cc(C(=O)Nc2ccc(F)cc2)c(=O)c2cc(F)ccc21)NO [Quinolone-based HDAC inhibitor 4q] — within 1.5-fold, 40 nM
- COc1ccc(NC(=O)c2cn(CCCCC(=O)NO)c3ccc(F)cc3c2=O)cc1 [Quinolone-based HDAC inhibitor 4r] — the same, 28 nM
- COc1ccc(CNC(=O)c2cn(CCCCC(=O)NO)c3ccc(F)cc3c2=O)cc1 [Quinolone-based HDAC inhibitor 4s] — 12-fold higher, 330 nM
- COc1ccc(NC(=O)c2cn(CCCCC(=O)NO)c3ccc(F)cc3c2=O)cc1OC [Quinolone-based HDAC inhibitor 4t] — 8.2-fold higher, 230 nM
- O=C(CCCCn1cc(C(=O)Nc2ccncc2)c(=O)c2cc(F)ccc21)NO [Quinolone-based HDAC inhibitor 4u] — 3-fold higher, 85 nM
- O=C(CCCCn1cc(C(=O)Nc2nc3ccccc3s2)c(=O)c2cc(F)ccc21)NO [Quinolone-based HDAC inhibitor 4v] — within 1.5-fold, 39 nM
- O=C(CCCCn1cc(C(=O)NC2=CC(c3ccccc3)N=N2)c(=O)c2ccccc21)NO (stereo not drawn) [Quinolone-based HDAC inhibitor 4w] — 3.4-fold higher, 95 nM
